Reference: US8766005B2, “Process for producing fingolimod salts” (Ratiopharm GmbH, priority 2009, dated 2014)

Test: dissolution profile before and after storage
Format: physicochemical
Conditions: during shelf life

dissolution profile before and after storage: constant
Compound: CCCCCCCCc1ccc(CCC(N)(CO)CO)cc1.Cl [polymorphic form B, fingolimod hydrochloride]
